From ChEMBL document CHEMBL4017474, “A calcineurin antifungal strategy with analogs of FK506” (Bioorg Med Chem Lett, 2017) come the findings set out here.

Each structure is given as a SMILES string. Active and inactive are the calls of the source. No cut-off for these calls is given here.

Data set [1] deals with T1, Peptidyl-prolyl cis-trans isomerase FKBP1A (Homo sapiens, UniProt P62942). The data set can be described thus: Antagonist activity at human FKBP12 measured after 30 mins by fluorescein labelled SLF tracer based fluorescence polarization assay.
The target of data set [2] is T1, Peptidyl-prolyl cis-trans isomerase FKBP1A. The data set can be described thus: Antagonist activity at recombinant human N-terminal His6-tagged FKBP12 expressed in Escherichia coli assessed as inhibition of FKBP12 binding to calcineurin at […] using […] pretreated for 1 hr followed by substrate addition measured after 1 hr by biomol green dye based spectrophotometric method.

Data set [3] shares this target. The data set is described as follows: Antagonist activity at recombinant human N-terminal His6-tagged FKBP12 expressed in Escherichia coli assessed as inhibition of FK506 mediated FKBP12 binding to calcineurin using […] pretreated for 1 hr followed by substrate addition measured after 1 hr by biomol green dye based spectrophotometric method.

For a further data set, the system named is Jurkat. The data set is described as follows: Immunosuppressive activity in PMA/ionomycin stimulated human Jurkat T cells assessed as suppression of IL2 production pretreated for 15 to 30 mins followed by PMA/ionomycin addition measured after 18 to 20 hrs by ELISA. The format is cell-based.
The test system of data set [4] is PBMC. The data set is described as follows: Reversal of FK506-induced inhibition of cell proliferation in concanavalin A stimulated human PBMC at 1 uM measured after 72 hrs by CellTiter-Glo assay relative to control. The format is functional. Details: scale not given: the % may be the effect or the level left.
Data set [5] has as its system PBMC. The data set is described as follows: Antiproliferative activity against concanavalin A stimulated human PBMC at 1 to 2 ug/ml measured after 72 hrs by CellTiter-Glo assay. The format is cell-based.
Data set [6] concerns Aspergillus fumigatus. The data set is described as follows: Antifungal activity against Aspergillus fumigatus assessed as spore germination at 12.5 ug/ml measured after 48 hrs in presence of FK506 by broth dilution method relative to control. The format is functional.
Data set [7] concerns Aspergillus fumigatus. The data set can be described thus: Antifungal activity against Aspergillus fumigatus up to 25 ug/ml measured after 48 hrs by broth dilution method. The format is functional.
The test system of a further data set is HepG2. The data set can be described thus: Cytotoxicity against human HepG2 cells. The format is cell-based.
The next data set concerns Vero 76. The data set can be described thus: Cytotoxicity against African green monkey Vero 76 cells. The format is cell-based. Particulars: Chlorocebus sabaeus.
The nature of data set [8]: Clearance in mouse at 3 mg/kg, iv. The format is ADME, organism-based. Particulars: in vivo.
A short description of data set [9]: Volume of distribution at steady state in mouse at 3 mg/kg, iv. The format is ADME, organism-based. Particulars: in vivo, read-out: Vdss.
The nature of data set [10]: Terminal half-life in mouse at 3 mg/kg, iv. The format is ADME, organism-based. Particulars: in vivo, read-out: beta t1/2 (converted).
A short description of data set [11]: AUClast in mouse at 3 mg/kg, iv. The format is ADME, organism-based. On the set-up: dose 3 mg/kg, time 0 - last, route intravenous. Particulars: in vivo.
For data set [12], the system named is PBMC. The data set is described as follows: Reversal of FK506-induced inhibition of cell proliferation in concanavalin A stimulated human PBMC at 0.1 uM measured after 72 hrs by CellTiter-Glo assay. The format is functional, cell-based.
Data set [13] relates to Aspergillus fumigatus. The data set is described as follows: Antifungal activity against Aspergillus fumigatus assessed as spore germination at 6.25 to 25 ug/ml measured after 48 hrs in presence of FK506 by broth dilution method. The format is functional.
Data set [14] can be described thus: Antagonist activity at Aspergillus fumigatus FKBP12 measured after 30 mins by fluorescein labelled SLF tracer based fluorescence polarization assay.

T1 sequence (P62942 whole entry): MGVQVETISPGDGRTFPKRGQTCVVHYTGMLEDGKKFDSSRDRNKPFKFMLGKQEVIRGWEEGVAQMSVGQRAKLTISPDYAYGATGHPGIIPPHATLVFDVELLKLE

Regarding `CO[C@H]1C[C@@H](C)C/C(C)=C/[C@@H](/C=C/CCCC(=O)N2CCNCC2)C(=O)C[C@H](O)[C@@H](C)[C@@H](/C(C)=C/[C@@H]2CC[C@@H](O)[C@H](OC)C2)OC(=O)[C@@H]2CCCCN2C(=O)C(=O)[C@]2(O)O[C@H]1[C@@H](OC)C[C@H]2C`, the IC50 was 12.6 nM in data set [1]; 1810 nM in [3]; > 10000 nM with Jurkat; > 100000 nM with HepG2; > 100000 nM in the data set on Vero 76. Moreover, the inhibition entry in data set [2] was “inactive”. In addition, the figures for the Activity in the data set on PBMC [4], in the data set with PBMC [5] and with Aspergillus fumigatus [6] were 27.5%, “Non-Toxic” and 36.5%, respectively. For the same molecule, the result in the data set on Aspergillus fumigatus [7] was inactive.

Consider `CO[C@H]1C[C@@H](C)C/C(C)=C/[C@@H](CC(=O)N2CCCC2)C(=O)C[C@H](O)[C@@H](C)[C@@H](/C(C)=C/[C@@H]2CC[C@@H](O)[C@H](OC)C2)OC(=O)[C@@H]2CCCCN2C(=O)C(=O)[C@]2(O)O[C@H]1[C@@H](OC)C[C@H]2C`, for which the IC50 in data set [1] was 22.1 nM; in the data set on Jurkat, > 10000 nM; with HepG2 it was > 100000 nM; with Vero 76, > 100000 nM. In addition, in data set [2], the inhibition result was “inactive”. For the same molecule, the Activity entry with PBMC [5] is recorded as “Non-Toxic”; in the data set on Aspergillus fumigatus [6], 90.5%. Also, the result with Aspergillus fumigatus [7] was inactive. Besides, the clearance in [8] was 22.8 mL/min/kg. For the same molecule, the Vd in data set [9] stood at 1.01 L/kg. Moreover, the half-life in data set [10] is 42.8 min. The AUC(0-t) in data set [11] worked out at 2140 ng·h/mL.

As for `CC[C@@H]1/C=C(\C)C[C@H](C)C[C@H](OC)[C@H]2O[C@@](O)(C(=O)C(=O)N3CCCC[C@H]3C(=O)O[C@H](/C(C)=C/[C@@H]3CC[C@@H](OC(=O)N4CCN(C)CC4)[C@H](OC)C3)[C@H](C)[C@@H](O)CC1=O)[C@H](C)C[C@@H]2OC`, the IC50 in data set [1] was 11 nM; in data set [3], 1740 nM; in the data set on Jurkat it was > 10000 nM; in the data set with HepG2, > 100000 nM; with Vero 76 it was > 100000 nM. Also, in data set [2], the inhibition result was “inactive”. The results for the Activity in the data set with PBMC [4], in the data set with PBMC [5] and in the data set on Aspergillus fumigatus [6] were 79.8%, “Non-Toxic” and 68%, respectively. For the same molecule, in the data set with Aspergillus fumigatus [7], the outcome was inactive.

Regarding `CO[C@H]1C[C@@H](C)C/C(C)=C/[C@@H](CCCC(=O)N2CCN(Cc3ccccn3)CC2)C(=O)C[C@H](O)[C@@H](C)[C@@H](/C(C)=C/[C@@H]2CC[C@@H](O)[C@H](OC)C2)OC(=O)[C@@H]2CCCCN2C(=O)C(=O)[C@]2(O)O[C@H]1[C@@H](OC)C[C@H]2C`, the IC50 in data set [1] is 11.2 nM; in data set [3], 1290 nM; in the data set on Jurkat it was > 10000 nM; in the data set with HepG2 it was > 100000 nM; with Vero 76, > 100000 nM. Further, the inhibition result in data set [2] is “inactive”. For the same molecule, the Activity in the data set on PBMC [4] is listed as 88.3%; with PBMC [5] it was “Non-Toxic”; in the data set on Aspergillus fumigatus [6], 47.4%. Besides, the result in the data set on Aspergillus fumigatus [7] was inactive.

Consider `CO[C@H]1C[C@@H](C)C/C(C)=C/[C@@H](CCCC(=O)NCCN2CCOCC2)C(=O)C[C@H](O)[C@@H](C)[C@@H](/C(C)=C/[C@@H]2CC[C@@H](O)[C@H](OC)C2)OC(=O)[C@@H]2CCCCN2C(=O)C(=O)[C@]2(O)O[C@H]1[C@@H](OC)C[C@H]2C`, for which the IC50 in data set [1] was 11.5 nM; in data set [3] it was 824 nM; in the data set on Jurkat it was > 10000 nM; with HepG2, > 100000 nM; with Vero 76, > 100000 nM. Besides, the inhibition entry in data set [2] is “inactive”. Moreover, the Activity was 45.9% in the data set with PBMC [4], “Non-Toxic” in the data set on PBMC [5] and 39.7% in the data set on Aspergillus fumigatus [6]. In the data set on Aspergillus fumigatus [7], the result was inactive.

On to `CO[C@H]1C[C@@H](C)C/C(C)=C/[C@@H](CCCC(=O)NCCc2ccccn2)C(=O)C[C@H](O)[C@@H](C)[C@@H](/C(C)=C/[C@@H]2CC[C@@H](O)[C@H](OC)C2)OC(=O)[C@@H]2CCCCN2C(=O)C(=O)[C@]2(O)O[C@H]1[C@@H](OC)C[C@H]2C`, for which the IC50 in data set [1] was 14.3 nM; in data set [3], 850 nM; in the data set with Jurkat, > 10000 nM; in the data set with HepG2 it was > 100000 nM; with Vero 76, > 100000 nM. In data set [2], the inhibition result was “inactive”. Also, the Activity with PBMC [4] was 36.6%; in the data set with PBMC [5], “Non-Toxic”; with Aspergillus fumigatus [6], 31%. For the same molecule, in the data set with Aspergillus fumigatus [7], the outcome was inactive.

Regarding `CO[C@H]1C[C@@H](C)C/C(C)=C/[C@@H](CCCC(=O)N2CC(O)C2)C(=O)C[C@H](O)[C@@H](C)[C@@H](/C(C)=C/[C@@H]2CC[C@@H](O)[C@H](OC)C2)OC(=O)[C@@H]2CCCCN2C(=O)C(=O)[C@]2(O)O[C@H]1[C@@H](OC)C[C@H]2C`, the IC50 in data set [1] is 12.5 nM; in data set [3] it was 1110 nM; in the data set with Jurkat it was > 10000 nM; in the data set on HepG2, > 100000 nM; in the data set on Vero 76, > 100000 nM. Also, the inhibition result in [2] was “inactive”. Besides, the figures for the Activity in the data set on PBMC [4], in the data set with PBMC [5] and in the data set with Aspergillus fumigatus [6] were 49.9%, “Non-Toxic” and 24%, respectively. Besides, in the data set with Aspergillus fumigatus [7], the outcome was inactive.

Regarding `CO[C@H]1C[C@@H](C)C/C(C)=C/[C@@H](CCCC(=O)N2CCN(C)CC2)C(=O)C[C@H](O)[C@@H](C)[C@@H](/C(C)=C/[C@@H]2CC[C@@H](OCCO)[C@H](OC)C2)OC(=O)[C@@H]2CCCCN2C(=O)C(=O)[C@]2(O)O[C@H]1[C@@H](OC)C[C@H]2C`, the IC50 in [1] was 19.1 nM; with Jurkat, > 10000 nM; with HepG2, > 100000 nM; in the data set on Vero 76, > 100000 nM. In addition, the inhibition entry in [2] is “inactive”. Further, the Activity with PBMC [4] is recorded as 67.8%; in the data set on PBMC [5], “Non-Toxic”; in the data set on Aspergillus fumigatus [6], 24 - 42%. The result in the data set on PBMC [12] and in the data set with Aspergillus fumigatus [7] was inactive. For the same molecule, the result in the data set with Aspergillus fumigatus [13] was Active.

In the case of `CO[C@H]1C[C@@H](C)C/C(C)=C/[C@@H](CCN(C)C)C(=O)C[C@H](O)[C@@H](C)[C@@H](/C(C)=C/[C@@H]2CC[C@@H](O)[C@H](OC)C2)OC(=O)[C@@H]2CCCCN2C(=O)C(=O)[C@]2(O)O[C@H]1[C@@H](OC)C[C@H]2C`, the IC50 is 19.2 nM in [1], > 10000 nM in the data set with Jurkat, > 100000 nM in the data set with HepG2 and > 100000 nM in the data set with Vero 76. For the same molecule, in data set [2], the inhibition entry was “inactive”. For the same molecule, the Activity with PBMC [4] is 105.6%; in the data set on PBMC [5], “Non-Toxic”; with Aspergillus fumigatus [6] it was 54.3%. The outcome with Aspergillus fumigatus [7] was inactive.

For `CO[C@H]1C[C@@H](C)C/C(C)=C/[C@@H](CCCC(=O)N(CCO)CCO)C(=O)C[C@H](O)[C@@H](C)[C@@H](/C(C)=C/[C@@H]2CC[C@@H](O)[C@H](OC)C2)OC(=O)[C@@H]2CCCCN2C(=O)C(=O)[C@]2(O)O[C@H]1[C@@H](OC)C[C@H]2C`, the IC50 in data set [1] is 13.4 nM; in data set [14] it was 22.5 nM; in [3] it was 989 nM; with Jurkat, > 10000 nM; with HepG2, > 100000 nM; with Vero 76 it was > 100000 nM. Moreover, in [2], the inhibition entry is “inactive”. In addition, the Activity in the data set with PBMC [4] is 36.2%; in the data set on PBMC [5] it was “Non-Toxic”; in the data set on Aspergillus fumigatus [6], 35.7%. Also, the outcome in the data set with Aspergillus fumigatus [7] was inactive.

For the molecule `CO[C@H]1C[C@@H](C)C/C(C)=C/[C@@H](CCCC(=O)N2CC(N3CCOCC3)C2)C(=O)C[C@H](O)[C@@H](C)[C@@H](/C(C)=C/[C@@H]2CC[C@@H](O)[C@H](OC)C2)OC(=O)[C@@H]2CCCCN2C(=O)C(=O)[C@]2(O)O[C@H]1[C@@H](OC)C[C@H]2C`, the IC50 in data set [1] is 9.52 nM; in [14], 12.8 nM; in data set [3] it was 1080 nM; with Jurkat, > 10000 nM; with HepG2, > 100000 nM; with Vero 76 it was > 100000 nM. The inhibition entry in [2] was “inactive”. Also, the Activity in the data set on PBMC [4] is recorded as 49.3%; in the data set on PBMC [5], “Non-Toxic”; with Aspergillus fumigatus [6], 49.6%. The result in the data set with Aspergillus fumigatus [7] was inactive.
